Patent US8709999B2, “Substituted bicyclic HCV inhibitors” (Presidio Pharmaceuticals, Inc., priority 2009, dated 2014)

Test system: HCV 1b_Huh-Luc/Neo-ET cell line (bicistronic genotype 1b replicon in Huh 7 cells)
Assay: HCV replicon assay (luciferase readout)
Format: cell-based, HCV genotype 1b
Conditions: Hepatitis C virus, Huh-7, 72 h, read-out: Inhibition of HCB genotype 1b
Description: Biological activity of the compounds of the invention was determined using an HCV replicon assay. The HCV 1b_Huh-Luc/Neo-ET cell line persistently expressing a bicistronic genotype 1b replicon in Huh 7 cells was obtained from ReBLikon GMBH. This cell line was used to test compound inhibition using luciferase enzyme activity readout as a measurement of compound inhibition of replicon levels.
On Day 1 (the day after plating cells), each compound is added in triplicate to the cells. Plates are incubated for 72 h prior to determining luciferase levels. Enzyme activity was measured using a Bright-Glo Kit (cat. number E2620) manufactured by Promega Corporation. The following equation was used to generate a percent control value for each compound. % Control=(Compound Luciferase Level/Control Luciferase Level)*100
The EC50 value was determined using GraphPad Prism and the following equation: Y=Bottom asymptote+(Top asymptote−Bottom asymptote)/(1+10^((LogEC50−X)*HillSlope))
EC50 values of compounds are determined several times in the replicon assay to generate average EC50 values.

Row | Structure (SMILES) | EC50 [nM]
1 | COCCOc1cc(-c2cnc([C@@H]3CCCN3C(=O)[C@@H](NC(=O)OC)C3CCCC3)[nH]2)ccc1-c1ccc(-c2cnc([C@@H]3CCCN3C(=O)[C@@H](NC(=O)OC)C3CCCC3)[nH]2)cc1OCCOC [Compound 8] | < 1
2 | COCCOc1c(-c2ccc(-c3cnc([C@@H]4CCCN4C(=O)[C@@H](NC(=O)OC)C(C)(C)C)[nH]3)cc2)ccc(-c2cnc([C@@H]3CCCN3C(=O)[C@@H](NC(=O)OC)C(C)(C)C)[nH]2)c1OCCOC [Compound 13] | 1 to 9.9
3 | COCCOc1c(-c2ccc(-c3cnc([C@@H]4CCCN4C(=O)[C@@H](NC(=O)OC)C4CCCC4)[nH]3)cc2)ccc(-c2cnc([C@@H]3CCCN3C(=O)[C@@H](NC(=O)OC)C3CCCC3)[nH]2)c1OCCOC [Compound 4] | < 1
4 | COCCOc1c(-c2ccc(-c3cnc([C@@H]4CCCN4C(=O)[C@@H](NC(=O)OC)C(C)C)[nH]3)cc2)ccc(-c2cnc([C@@H]3CCCN3C(=O)[C@@H](NC(=O)OC)C(C)C)[nH]2)c1OCCOC [Compound 2] | < 1
5 | COCCOc1c(-c2ccc(-c3cnc([C@@H]4CCCN4C(=O)[C@@H](NC(=O)OC)[C@@H](C)OC)[nH]3)cc2)ccc(-c2cnc([C@@H]3CCCN3C(=O)[C@@H](NC(=O)OC)[C@@H](C)OC)[nH]2)c1OCCOC [Compound 12] | 1 to 9.9
6 | COCCOc1cc(-c2cnc([C@@H]3CCCN3C(=O)[C@H](C)NC(=O)OC)[nH]2)ccc1-c1ccc(-c2cnc([C@@H]3CCCN3C(=O)[C@H](C)NC(=O)OC)[nH]2)cc1OCCOC [Compound 6] | 10 to 999
7 | COCCOc1c(-c2ccc(-c3cnc([C@@H]4CCCN4C(=O)[C@H](COC)NC(=O)OC)[nH]3)cc2)ccc(-c2cnc([C@@H]3CCCN3C(=O)[C@H](COC)NC(=O)OC)[nH]2)c1OCCOC [Compound 11] | 10 to 999
8 | COCCOc1c(-c2ccc(-c3cnc([C@@H]4CCCN4C(=O)[C@@H](NC(=O)OC)C(C)C)[nH]3)cc2)ccc(-c2cnc([C@@H]3CCCN3C(=O)[C@H](C)NC(=O)OC)[nH]2)c1OCCOC [Compound 18] | 1 to 9.9
9 | COCCOc1cc(-c2cnc([C@@H]3CCCN3C(=O)[C@@H](NC(=O)OC)C(C)C)[nH]2)ccc1-c1ccc(-c2cnc([C@@H]3CCCN3C(=O)[C@@H](NC(=O)OC)C(C)C)[nH]2)cc1OCCOC [Compound 1] | < 1
10 | CC[C@H](C)[C@H](NC(=O)OC)C(=O)N1CCC[C@H]1c1ncc(-c2ccc(-c3ccc(-c4cnc([C@@H]5CCCN5C(=O)[C@@H](NC(=O)OC)[C@@H](C)CC)[nH]4)c(OCCOC)c3OCCOC)cc2)[nH]1 [Compound 3] | < 1
11 | COCCOc1cc(-c2cnc([C@@H]3CCCN3C(=O)[C@@H](NC(=O)OC)C3CCCCC3)[nH]2)ccc1-c1ccc(-c2cnc([C@@H]3CCCN3C(=O)[C@@H](NC(=O)OC)C3CCCCC3)[nH]2)cc1OCCOC [Compound 9] | < 1
12 | COCCOc1c(-c2ccc(-c3cnc([C@@H]4CCCN4C(=O)[C@H](C)NC(=O)OC)[nH]3)cc2)ccc(-c2cnc([C@@H]3CCCN3C(=O)[C@H](C)NC(=O)OC)[nH]2)c1OCCOC [Compound 10] | < 1
13 | COCCOc1c(-c2ccc(-c3cnc([C@@H]4CCCN4C(=O)[C@@H](NC(=O)OC)C4CCOCC4)[nH]3)cc2)ccc(-c2cnc([C@@H]3CCCN3C(=O)[C@@H](NC(=O)OC)C3CCOCC3)[nH]2)c1OCCOC [Compound 14] | 1 to 9.9
14 | COCCOc1c(-c2ccc(-c3cnc([C@@H]4CCCN4C(=O)[C@H](NS(C)(=O)=O)c4ccccc4)[nH]3)cc2)ccc(-c2cnc([C@@H]3CCCN3C(=O)[C@H](NS(C)(=O)=O)c3ccccc3)[nH]2)c1OCCOC [Compound 17] | < 1
15 | CC[C@H](C)[C@H](NC(=O)OC)C(=O)N1CCC[C@H]1c1ncc(-c2ccc(-c3ccc(-c4cnc([C@@H]5CCCN5C(=O)[C@@H](NC(=O)OC)[C@@H](C)CC)[nH]4)cc3OCCOC)c(OCCOC)c2)[nH]1 [Compound 7] | < 1
16 | COCCOc1c(-c2ccc(-c3cnc([C@@H]4CCCN4C(=O)[C@@H](c4ccccc4)N(C)C)[nH]3)cc2)ccc(-c2cnc([C@@H]3CCCN3C(=O)[C@@H](c3ccccc3)N(C)C)[nH]2)c1OCCOC [Compound 15] | < 1
17 | COCCOc1c(-c2ccc(-c3cnc([C@@H]4CCCN4C(=O)[C@@H](c4ccccc4)N4CCCC4)[nH]3)cc2)ccc(-c2cnc([C@@H]3CCCN3C(=O)[C@@H](c3ccccc3)N3CCCC3)[nH]2)c1OCCOC [Compound 16] | 1 to 9.9
18 | CC[C@H](C)[C@H](NC(=O)OC)C(=O)N1CCC[C@H]1c1ncc(-c2ccc(-c3ccc(-c4cnc([C@@H]5CCCN5C(=O)[C@@H](NC(=O)OC)C(C)C)[nH]4)cc3)c(OCCOC)c2OCCOC)[nH]1 [Compound 19] | < 1
